Data reported in patent US20050282755A1, “Compositions having antimicrobial activity and uses thereof” (priority 2004, published 2005).
Values after ≈ are worked out from the molar mass of the structure shown. Starred links: 1 amine or outer side, 2 acyl side, 3 side chain; linkers in the order of their positions; H or OH if unused. Non-standard residues stand in square brackets, D forms with d. Residues, ends and D or L forms follow the SMILES beside them. *: point of attachment. Ethylenediamine = C(CN[*:2])N[*:1]; Lauroyl = CCCCCCCCCCCC(=O)*; Octanoyl = CCCCCCCC(=O)*

What was measured:
Assay type in all cases: cell-based
[1] = tested on: Staphylococcus aureus ATCC 29213; assay: MIC, NCCLS M7-A6 broth microdilution, cation-adjusted Mueller Hinton broth (Table 9, no superscript); conditions: ATCC 29213
How it was run: (§1)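 Log-phase bacteria were added to wells containing peptide in cation-adjusted Mueller Hinton broth at a final 5×10^5 to 1×10^6 CFU/milliliter. Plates then sat overnight at 37° C. Wells were scored visually for turbidity against a peptide-free control.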

[2] = tested on: Escherichia coli ATCC 25922; assay: MIC, NCCLS M7-A6 broth microdilution (Table 9, no superscript); conditions: ATCC 25922
How it was run: as §1

[3] = tested on: Pseudomonas aeruginosa ATCC 27853; assay: as above; conditions: ATCC 27853
How it was run: as §1

[4] = tested on: Salmonella dublin (Lane); assay: as above
How it was run: as §1

[5] = tested on: Staphylococcus epidermidis ATCC 12228; assay: as above; conditions: ATCC 12228
How it was run: as §1

[6] = tested on: Propionibacterium acnes ATCC 6919; assay: MIC, agar dilution method NCCLS M11-A6, Brucella agar, anaerobic (Table 9, superscript c); conditions: ATCC 6919
How it was run: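 MIC taken as the lowest peptide level giving no colonies on the plate. Plates were inoculated to 1.5×10^8 CFU/milliliter, then kept anaerobically at 37° C. for 48-96 hours; method follows NCCLS M11-A6.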

[7] = tested on: Candida albicans ATCC 18804; assay: MIC in yeasts, NCCLS M27-A2 broth microdilution, RPMI 1640 (Table 9, letter e); conditions: ATCC 18804
How it was run: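 Plates incubated 24 to 48 hours at 37° C, with yeast seeded at 0.5×10^3–2.5×10^3 CFU/milliliter final in RPMI 1640 (glutamine, phenol red indicator). MIC was read as the lowest peptide concentration showing no visible growth.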

MIC S. aureus [1] [mg/L]	MIC E. coli [2] [mg/L]	MIC P. aeruginosa [3] [mg/L]	MIC S. dublin [4] [mg/L]	MIC S. epidermidis [5] [mg/L]	MIC P. acnes [6] [c ug/mL]	MIC C. albicans [7] [e ug/mL]	Compound
4 (≈ 2.05 µM)	8 (≈ 4.09 µM)	32 (≈ 16.4 µM)	8 (≈ 4.09 µM)	1 (≈ 0.511 µM)	8	1	CCCCCCCCCCCC(=O)N[C@@H](CCCNC(=N)N)C(=O)N[C@@H](CO)C(=O)N[C@@H](CCCNC(=N)N)C(=O)N[C@@H](Cc1c[nH]c2ccccc12)C(=O)N[C@@H](CCCNC(=N)N)C(=O)N[C@@H](CC(=O)O)C(=O)N[C@H](C(=O)N[C@@H](CC(C)C)C(=O)N[C@@H](CCCNC(=N)N)C(=O)N[C@@H](CC(N)=O)C(=O)N[C@@H](Cc1ccccc1)C(=O)N[C@@H](CC(C)C)C(=O)N[C@@H](CCCNC(=N)N)C(N)=O)C(C)C [Peptide 136, Lauryl-RSRWRDVLRNFLR-NH2] (Lauroyl-RSRWRDVLRNFLR-NH2)
4 (≈ 1.94 µM)	16 (≈ 7.75 µM)	8 (≈ 3.87 µM)	>64	1 (≈ 0.484 µM)	>64	2	CCCCCCCCCCCC(=O)N[C@H](CCCNC(=N)N)C(=O)N[C@H](CCCNC(=N)N)C(=O)N[C@H](CCCNC(=N)N)C(=O)N[C@H](Cc1c[nH]c2ccccc12)C(=O)N[C@H](CCCNC(=N)N)C(=O)N[C@H](CCCNC(=N)N)C(=O)N[C@@H](C(=O)N[C@H](C)C(=O)N[C@H](CCCNC(=N)N)C(=O)N[C@H](CCCNC(=N)N)C(=O)N[C@H](Cc1ccccc1)C(=O)N[C@H](CC(C)C)C(=O)N[C@H](CCCNC(=N)N)C(N)=O)C(C)C [Peptide 222, Lauryl-rrrwrrvarrflr-NH2] (Lauroyl-[dR][dR][dR][dW][dR][dR][dV][dA][dR][dR][dF][dL][dR]-NH2)
8 (≈ 4.87 µM)	8 (≈ 4.87 µM)	8 (≈ 4.87 µM)	8 (≈ 4.87 µM)	4 (≈ 2.43 µM)	8	32	CCCCCCCCCCCC(=O)N[C@H](CCCNC(=N)N)C(=O)N[C@H](CO)C(=O)N[C@H](CCCNC(=N)N)C(=O)N[C@H](Cc1c[nH]c2ccccc12)C(=O)N[C@H](CCCNC(=N)N)C(=O)N[C@H](CC(=O)O)C(=O)N[C@@H](C(=O)N[C@H](C)C(=O)N[C@H](CCCNC(=N)N)C(=O)N[C@H](CC(N)=O)C(=O)N[C@H](Cc1ccccc1)C(N)=O)C(C)C [Peptide 116, Lauryl-rsrwrdvarnf-NH2] (Lauroyl-[dR][dS][dR][dW][dR][dD][dV][dA][dR][dN][dF]-NH2)
16 (≈ 8.55 µM)	32 (≈ 17.1 µM)	32 (≈ 17.1 µM)	32 (≈ 17.1 µM)	2 (≈ 1.07 µM)	64	8	CCCCCCCCCCCC(=O)N[C@@H](CCCNC(=N)N)C(=O)N[C@@H](CO)C(=O)N[C@@H](CCCNC(=N)N)C(=O)N[C@@H](Cc1c[nH]c2ccccc12)C(=O)N[C@@H](CCCNC(=N)N)C(=O)N[C@@H](CC(=O)O)C(=O)N[C@H](C(=O)N[C@@H](C)C(=O)N[C@@H](CCCNC(=N)N)C(=O)N[C@@H](CC(N)=O)C(=O)N[C@@H](Cc1ccccc1)C(=O)N[C@@H](C)C(=O)N[C@@H](CCCNC(=N)N)C(N)=O)C(C)C [Peptide 97, Lauryl-RSRWRDVARNFAR-NH2] (Lauroyl-RSRWRDVARNFAR-NH2)
16 (≈ 8.06 µM)	8 (≈ 4.03 µM)	16 (≈ 8.06 µM)	16 (≈ 8.06 µM)	2 (≈ 1.01 µM)	8	32	CCCCCCCC(=O)NCCCC[C@@H](NC(=O)[C@@H](CCCNC(=N)N)NC(=O)[C@@H](CC(C)C)NC(=O)[C@@H](Cc1ccccc1)NC(=O)[C@@H](CC(N)=O)NC(=O)[C@@H](CCCNC(=N)N)NC(=O)[C@@H](C)NC(=O)[C@H](NC(=O)[C@@H](CC(=O)O)NC(=O)[C@@H](CCCNC(=N)N)NC(=O)[C@@H](Cc1c[nH]c2ccccc12)NC(=O)[C@@H](CCCNC(=N)N)NC(=O)[C@@H](CO)NC(=O)[C@H](N)CCCNC(=N)N)C(C)C)C(N)=O [Peptide 193, H2N-rsrwrdvarnflrk(Octanyl)-NH2] (H-[dR][dS][dR][dW][dR][dD][dV][dA][dR][dN][dF][dL][dR][dK](Octanoyl)-NH2)
4 (≈ 2.03 µM)	4 (≈ 2.03 µM)	32 (≈ 16.2 µM)	2 (≈ 1.01 µM)	1 (≈ 0.507 µM)	2	1	CCCCCCCCCCCC(=O)N[C@@H](CCCNC(=N)N)C(=O)N[C@@H](CO)C(=O)N[C@@H](CCCNC(=N)N)C(=O)N[C@@H](Cc1c[nH]c2ccccc12)C(=O)N[C@@H](CCCNC(=N)N)C(=O)N[C@@H](CC(=O)O)C(=O)N[C@H](C(=O)N[C@@H](CC(C)C)C(=O)N[C@@H](CCCNC(=N)N)C(=O)N[C@@H](CC(N)=O)C(=O)N[C@@H](Cc1ccccc1)C(=O)N[C@@H](CCSC)C(=O)N[C@@H](CCCNC(=N)N)C(N)=O)C(C)C [Peptide 134, Lauryl-RSRWRDVLRNFMR-NH2] (Lauroyl-RSRWRDVLRNFMR-NH2)
4 (≈ 2.89 µM)	32 (≈ 23.1 µM)	32 (≈ 23.1 µM)	>64	2 (≈ 1.45 µM)	>64	>64	CCCCCCCCCCCC(=O)N[C@@H](CCCNC(=N)N)C(=O)N[C@@H](CO)C(=O)N[C@@H](CCCNC(=N)N)C(=O)N[C@@H](Cc1c[nH]c2ccccc12)C(=O)N[C@@H](CCCNC(=N)N)C(=O)N[C@@H](CC(=O)O)C(=O)N[C@H](C(=O)N[C@@H](C)C(=O)N[C@@H](CCCNC(=N)N)C(N)=O)C(C)C [Peptide 101, Lauryl-RSRWRDVAR-NH2] (Lauroyl-RSRWRDVAR-NH2)
16 (≈ 8.62 µM)	16 (≈ 8.62 µM)	16 (≈ 8.62 µM)	64 (≈ 34.5 µM)	2 (≈ 1.08 µM)	16	64	CCCCCCCC(=O)N[C@H](CCCNC(=N)N)C(=O)N[C@H](CO)C(=O)N[C@H](CCCNC(=N)N)C(=O)N[C@H](Cc1c[nH]c2ccccc12)C(=O)N[C@H](CCCNC(=N)N)C(=O)N[C@H](CC(=O)O)C(=O)N[C@@H](C(=O)N[C@H](C)C(=O)N[C@H](CCCNC(=N)N)C(=O)N[C@H](CC(N)=O)C(=O)N[C@H](Cc1ccccc1)C(=O)N[C@H](CC(C)C)C(=O)N[C@H](CCCNC(=N)N)C(N)=O)C(C)C [Peptide 252, Octyl-rsrwrdvarnflr-NH2] (Octanoyl-[dR][dS][dR][dW][dR][dD][dV][dA][dR][dN][dF][dL][dR]-NH2)
8 (≈ 4.05 µM)	8 (≈ 4.05 µM)	32 (≈ 16.2 µM)	16 (≈ 8.1 µM)	1 (≈ 0.506 µM)	64	4	CCCCCCCCCCCC(=O)NCCNC(=O)[C@H](CCCNC(=N)N)NC(=O)[C@H](CCSC)NC(=O)[C@H](Cc1ccccc1)NC(=O)[C@H](CC(N)=O)NC(=O)[C@H](CCCNC(=N)N)NC(=O)[C@H](C)NC(=O)[C@@H](NC(=O)[C@H](CC(=O)O)NC(=O)[C@H](CCCNC(=N)N)NC(=O)[C@H](Cc1c[nH]c2ccccc12)NC(=O)[C@H](CCCNC(=N)N)NC(=O)[C@H](CO)NC(=O)[C@@H](N)CCCNC(=N)N)C(C)C [Peptide 176, H2N-RSRWRDVARNFMR-Ethylamidolauryl] (H-RSRWRDVARNFMR-{Ethylenediamine-Lauroyl}; C-terminus assumed)
